Columns and labels:
uninfected MT2 cells = assay: Compound cytotoxicity, XTT-based colorimetric assay; assay type: cell-based
In short: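 XTT colorimetric read-out on day 4 gave CC50 values, using MT2 cells left uninfected but otherwise handled as in the antiviral assay.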

[1] = test system: recombinant NL4-3 virus (nef section replaced with Renilla luciferase gene) in MT-2 cells; assay: HIV cell culture assay (antiviral activity, luciferase readout); assay type: cell-based; conditions: MT-2 cells infected for 4-5 days with recombinant NL4-3 luciferase virus
In short: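 Serially diluted compounds were present throughout a 4-5 day infection of MT-2 cells by recombinant NL4-3 whose nef region partly encodes Renilla luciferase. Antiviral activity was taken from live-cell luciferase signal, with the 50% effective concentration fitted by the exponential median effect equation.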

SMILES | CC50 (uninfected MT2 cells; Table 1a, day 4, XTT) | EC50 ([1]; Table 1a) | CC50 (uninfected MT2 cells; Table 1, day 4, XTT) | EC50 ([1]; Table 1) | EC50 ([1]; Renilla, NL43, Table 1a)
Cn1nc(NS(C)(=O)=O)c2c(Cl)ccc(-n3c([C@H](Cc4cc(F)cc(F)c4)NC(=O)Cn4nc(C(F)F)c5c4C(F)(F)[C@@H]4C[C@H]54)nc4cc(Cl)ccc4c3=O)c21 (mixture of isomers) [Example 168, N—((S)-1-(7-chloro-3-(4-chloro-1-methyl-3-(methylsulfonamido)-1H-indazol-7-yl)-4-oxo-3,4-dihydroquinazolin-2-yl)-2-(3,5-difluorophenyl)ethyl)-2-((3bS,4aR)-3-(difluoromethyl)-5,5-difluoro-3b,4,4a,5-tetrahydro-1H-cyclopropa[3,4]cyclopenta[1,2-c]pyrazol-1-yl)acetamide] | > 1000 nM | 0.058 nM |  |  | 
CS(=O)(=O)Nc1nn(CC(F)F)c2c(-c3cc4[nH]ncc4nc3[C@H](Cc3cc(F)cc(F)c3)NC(=O)Cn3nc(C(F)F)c4c3C(F)(F)[C@@H]3C[C@H]43)ccc(Cl)c12 (single isomer, unassigned) [Example 93] | > 10000 nM | 0.099 nM |  |  | 
O=C(Cn1nc(C(F)F)c2c1C(F)(F)[C@@H]1C[C@H]21)NC(Cc1cc(F)cc(F)c1)c1nc2ncsc2cc1-c1ccc2scnc2c1 (single isomer, unassigned) [Example 1.1] |  |  | > 100000 nM | 3.1 nM | 
Cn1nc(NS(C)(=O)=O)c2c(Cl)ccc(-n3c([C@H](Cc4cc(F)cc(F)c4)NC(=O)Cn4ccc(C5CC5)n4)nc4cccc(F)c4c3=O)c21 (single isomer, unassigned) [Example 184] | > 1000 nM | 0.35 nM |  |  | 
Cn1nc(NS(C)(=O)=O)c2c(Cl)ccc(-c3cc4cc[nH]c4nc3C(Cc3cc(F)cc(F)c3)NC(=O)Cn3nc(C(F)F)c4c3C(F)(F)[C@@H]3C[C@H]43)c21 (single isomer, unassigned) [Example 86] | > 10000 nM | 1100 nM |  |  | 
O=C(Cn1nc(C(F)F)c2c1C(F)(F)[C@@H]1C[C@H]21)N[C@H](Cc1cc(F)cc(F)c1)c1nc2cn[nH]c2cc1-c1ccc2scnc2c1 (single isomer, unassigned) [Example 3.1] |  |  | 42100 nM | 22 nM | 
Cn1nc(NS(C)(=O)=O)c2c(Cl)ccc(-n3c([C@H](Cc4cc(F)cc(F)c4)NC(=O)Cn4nc(C(F)F)c5c4CCC5)nc4c(F)cc(F)cc4c3=O)c21 (single isomer, unassigned) [Example 100] | > 1000 nM | 0.033 nM |  |  | 
Cn1nc(NS(C)(=O)=O)c2c(Cl)ccc(-c3c(C(Cc4cc(F)cc(F)c4)NC(=O)Cn4nc(C(F)F)c5c4C(F)(F)[C@@H]4C[C@H]54)ncc4[nH]cnc34)c21 (single isomer, unassigned) [Example 7.4] |  |  | > 10000 nM | 300 nM | 
Cn1nc(NS(C)(=O)=O)c2c(Cl)ccc(-c3cc4[nH]ccc4nc3C(Cc3cc(F)cc(F)c3)NC(=O)Cn3nc(C(F)F)c4c3C(F)(F)[C@@H]3C[C@H]43)c21 (single isomer, unassigned) [Example 5.3] |  |  | > 10000 nM | 0.2 nM | 
Cn1nc(NS(C)(=O)=O)c2c(Cl)ccc(-n3c([C@H](Cc4cc(F)cc(F)c4)NC(=O)Cn4nc(C(F)F)c5c4C(F)(F)[C@@H]4C[C@H]54)nc4cc(CS(C)(=O)=O)ccc4c3=O)c21 (mixture of isomers) [Example 202, N—((S)-1-(3-(4-chloro-1-methyl-3-(methylsulfonamido)-1H-indazol-7-yl)-7-((methylsulfonyl)methyl)-4-oxo-3,4-dihydroquinazolin-2-yl)-2-(3,5-difluorophenyl)ethyl)-2-((3bS,4aR)-3-(difluoromethyl)-5,5-difluoro-3b,4,4a,5-tetrahydro-1H-cyclopropa[3,4]cyclopenta[1,2-c]pyrazol-1-yl)acetamide] | > 1000 nM | 0.3 nM |  |  | 
CC(C)c1ccc(-c2cc3[nH]ccc3nc2[C@H](Cc2cc(F)cc(F)c2)NC(=O)Cn2nc(C(F)F)c3c2C(F)(F)[C@@H]2C[C@H]32)cn1 [Example 82, 2-((3bS,4aR)-3-(difluoromethyl)-5,5-difluoro-3b,4,4a,5-tetrahydro-1H-cyclopropa[3,4]cyclopenta[1,2-c]pyrazol-1-yl)-N—((S)-2-(3,5-difluorophenyl)-1-(6-(6-isopropylpyridin-3-yl)-1H-pyrrolo[3,2-b]pyridin-5-yl)ethyl)acetamide] | 6310 nM |  |  |  | 3.81 nM
COc1cc(F)c2c(=O)n(-c3ccc(Cl)c4c(NS(C)(=O)=O)nn(C)c34)c([C@H](Cc3cc(F)cc(F)c3)NC(=O)Cn3ccc(C4CC4)n3)nc2c1 (single isomer, unassigned) [Example 190] | > 1000 nM | 42.2 nM |  |  | 
COc1ccc2c(=O)n(-c3ccc(Cl)c4c(NS(C)(=O)=O)nn(C)c34)c([C@H](Cc3cc(F)cc(F)c3)NC(=O)Cn3ccc(C4CC4)n3)nc2n1 (mixture of isomers) [Example 58.2, N-[(1S)-1-[3-(4-chloro-3-methanesulfonamido-1-methyl-1H-indazol-7-yl)-7-methoxy-4-oxo-3H,4H-pyrido[2,3-d]pyrimidin-2-yl]-2-(3,5-difluorophenyl)ethyl]-2-(3-cyclopropyl-1H-pyrazol-1-yl)acetamide] | > 1000 nM | 0.168 nM |  |  | 
Cn1nc(NS(C)(=O)=O)c2c(Cl)ccc(-c3cc4[nH]ccc4nc3C(Cc3cc(F)cc(F)c3)NC(=O)Cn3nc(C(F)F)c4c3C(F)(F)[C@@H]3C[C@H]43)c21 (single isomer, unassigned) [Example 5.2] |  |  | > 10000 nM | 400 nM | 
Cc1c(F)ccc2c(=O)n(-c3ccc(Cl)c4c(NS(C)(=O)=O)nn(C)c34)c([C@H](Cc3cc(F)cc(F)c3)NC(=O)Cn3nc(C(F)F)c4c3C(F)(F)[C@@H]3C[C@H]43)nc12 (single isomer, unassigned) [Example 108] | > 1000 nM | 0.85 nM |  |  | 
Cn1nc(NS(C)(=O)=O)c2c(Cl)ccc(-n3c([C@H](Cc4cc(F)cc(F)c4)NC(=O)Cn4nc(C(F)F)c5c4C(F)(F)[C@@H]4C[C@H]54)nc4cc(C(C)(C)C)ccc4c3=O)c21 (mixture of isomers) [Example 216, N—((S)-1-(7-(tert-Butyl)-3-(4-chloro-1-methyl-3-(methylsulfonamido)-1H-indazol-7-yl)-4-oxo-3,4-dihydroquinazolin-2-yl)-2-(3,5-difluorophenyl)ethyl)-2-((3bS,4aR)-3-(difluoromethyl)-5,5-difluoro-3b,4,4a,5-tetrahydro-1H-cyclopropa[3,4]cyclopenta[1,2-c]pyrazol-1-yl)acetamide] | > 1000 nM | 0.059 nM |  |  | 
COc1ccc2nc([C@H](Cc3cc(F)cc(F)c3)NC(=O)Cn3nc(C(F)F)c4c3C(F)(F)[C@@H]3C[C@H]43)n(-c3ccc(Cl)c4c(NS(C)(=O)=O)nn(C)c34)c(=O)c2c1 (single isomer, unassigned) [Example 174] | > 1000 nM | 0.096 nM |  |  | 
Cn1nc(NS(C)(=O)=O)c2c(Cl)ccc(-n3c([C@H](Cc4cc(F)cc(F)c4)NC(=O)Cn4ccc(C5CC5)n4)nc4cc(C(F)(F)F)ccc4c3=O)c21 (single isomer, unassigned) [Example 151] | > 1000 nM |  |  |  | 0.74 nM
CS(=O)(=O)Nc1nn(CC(F)(F)F)c2c(-c3cc4[nH]ncc4nc3[C@H](Cc3cc(F)cc(F)c3)NC(=O)Cn3nc(C(F)F)c4c3C(F)(F)[C@@H]3C[C@H]43)ccc(Cl)c12 (single isomer, unassigned) [Example 95] | > 1000 nM | 0.094 nM |  |  | 
COc1c(F)cc2c(=O)n(-c3ccc(Cl)c4c(NS(C)(=O)=O)nn(C)c34)c([C@H](Cc3cc(F)cc(F)c3)NC(=O)Cn3ccc(C4CC4)n3)nc2c1F (single isomer, unassigned) [Example 116] | > 1000 nM | 0.231 nM |  |  | 
COc1ccc2c(=O)n(-c3ccc(Cl)c4c(NS(C)(=O)=O)nn(CC(F)F)c34)c([C@H](Cc3cc(F)cc(F)c3)NC(=O)Cn3ccc(C4CC4)n3)nc2n1 (atropisomer, axis not shown) [Example 55.2, N-[(1S)-1-{3-[4-chloro-1-(2,2-difluoroethyl)-3-methanesulfonamido-1H-indazol-7-yl]-7-methoxy-4-oxo-3H,4H-pyrido[2,3-d]pyrimidin-2-yl}-2-(3,5-difluorophenyl)ethyl]-2-(3-cyclopropyl-1H-pyrazol-1-yl)acetamide] | > 1000 nM | 0.33 nM |  |  | 
Cn1nc(NS(C)(=O)=O)c2c(Cl)ccc(-n3c([C@H](Cc4cc(F)cc(F)c4)NC(=O)Cn4nc(C(F)F)c5c4C(F)(F)[C@@H]4C[C@H]54)nc4ncccc4c3=O)c21 (single isomer, unassigned) [Example 10.40] |  |  | > 10000 nM | 0.0189 nM | 
COc1c(F)ccc2c(=O)n(-c3ccc(Cl)c4c(NS(C)(=O)=O)nn(C)c34)c([C@H](Cc3cc(F)cc(F)c3)NC(=O)Cn3nc(C(F)F)c4c3C(F)(F)[C@@H]3C[C@H]43)nc12 (single isomer, unassigned) [Example 110] | > 1000 nM | 0.072 nM |  |  | 
COc1c(F)ccc2c(=O)n(-c3ccc(Cl)c4c(NS(C)(=O)=O)nn(C)c34)c([C@H](Cc3cc(F)cc(F)c3)NC(=O)Cn3ccc(C4CC4)n3)nc12 (single isomer, unassigned) [Example 112] | > 1000 nM | 0.51 nM |  |  | 
Cn1nc(NS(C)(=O)=O)c2c(Cl)ccc(-c3cc4[nH]cnc4nc3C(Cc3cc(F)cc(F)c3)NC(=O)Cn3nc(C(F)F)c4c3C(F)(F)[C@@H]3C[C@H]43)c21 (single isomer, unassigned) [Example 4.2] |  |  | > 10000 nM | 1 nM | 
COc1cc(F)c2c(=O)n(-c3ccc(Cl)c4c(NS(C)(=O)=O)nn(C)c34)c([C@H](Cc3cc(F)cc(F)c3)NC(=O)Cn3nc(C(F)F)c4c3C(F)(F)[C@@H]3C[C@H]43)nc2c1 (single isomer, unassigned) [Example 187] | > 1000 nM | 178 nM |  |  | 
